Measured values published in patent publication US10774080B2, “Pyrimidine compound as JAK kinase inhibitor” (THERAVANCE BIOPHARMA R&D IP, LLC, priority 2017, dated 2020).

Experiments:
[1] = Dynamic moisture sorption (DMS); format: physicochemical; conditions: for total moisture uptake between 5 and 90% RH: 25° C.
Experimental: Dynamic moisture sorption (DMS) measurement was performed using a VTI atmospheric microbalance, SGA-100 system (VTI Corp., Hialeah, Fla. 33016). A weighed sample was used and the humidity was lowest possible value (close to 0% RH) at the start of the analysis. The DMS analysis consisted of an initial drying step (0% RH) for 120 minutes, followed by two cycles of sorption and desorption with a scan rate of 5% RH/step over the humidity range of 5% RH to 90% RH. The DMS run was performed isothermally at 25° C. The total moisture uptake between 5 and 90% RH was 1.96%.
The DMS analysis consisted of an initial drying step (0% RH) for 120 minutes, followed by two cycles of sorption and desorption with a scan rate of 5% RH/step over the humidity range of 5% RH to 90% RH. The DMS run was performed isothermally at 25° C. The total moisture uptake between 5 and 90% RH was about 0.02%.

in vitro = in vitro ADME; conditions: human, microsomes, pH 7.4, HLM Clint
Experimental: Assay 17: Human Liver Microsome Assay The objective of this assay was to assess the metabolic stability of test compounds in an in vitro human liver sub-fraction. Human liver microsomes obtained from Bioreclamation-IVT (Baltimore, Md.) were thawed on ice and diluted into 0.1M potassium phosphate buffer pH 7.4 to yield final incubation protein concentrations of 0.1 mg/mL. […] Incubations were conducted at 37° C. temperature and test aliquots were taken at time points 0, 5, 8, 15, 30 and 45 minutes. […] The resulting samples were injected onto an LC-MS/MS system for analysis. For each incubation, the peak area of the analytes in each t0 aliquot was set to 100% and the peak areas from subsequent time point aliquots were converted to percentage of parent compound remaining relative to t0. The percentage of parent compound remaining was converted to natural log scale and plotted versus time in minutes. A linear regression analysis was performed for the initial decline of the parent disappearance profile and a formula for the best-fit line determined. The slope of the resultant line was normalized to protein concentration in mg/mL protein or number of cells/mL and CLint was calculated as follows for liver microsomes: CLint (μL·min^−1·mg^−1)=(Slope×1000)/[protein,mg/mL]

## CCS(=O)(=O)N1[C@@H]2CCC[C@H]1C[C@H](N(C)c1nc(CO)c(F)c(Nc3cc(C)[nH]n3)n1)C2 [Form I]
[1]
  total moisture uptake between 5 and 90% RH: 1.96%

## CCS(=O)(=O)N1[C@@H]2CCC[C@H]1C[C@H](N(C)c1nc(CO)c(F)c(Nc3cc(C)[nH]n3)n1)C2 [Form II]
[1]
  hygroscopicity (in words): non-hygroscopic
  total moisture uptake between 5 and 90% RH: about 0.02%

## CCS(=O)(=O)N1[C@@H]2CCC[C@H]1C[C@H](N(C)c1nc(Nc3cc(C)[nH]n3)cc(C(N)=O)n1)C2 [Compound C-1, 2-(((1R,3s,5S)-9-(ethylsulfonyl)-9-azabicyclo[3.3.1]nonan-3-yl)(methyl)amino)-6-((5-methyl-1H-pyrazol-3-yl)amino)pyrimidine-4-carboxamide, reference compound]
In vitro
  microsomal CLint at 0.1 μM: 6 µL/min/mg

## Cc1cc(Nc2cc(CO)nc(N(C)[C@@H]3C[C@H]4CC[C@@H](C3)N4CCC#N)n2)n[nH]1 [Compound C-2, 3-((1R,3s,5S)-3-((4-(hydroxymethyl)-6-((5-methyl-1H-pyrazol-3-yl)amino)pyrimidin-2-yl)(methyl)amino)-8-azabicyclo[3.2.1]octan-8-yl)propanenitrile, reference compound]
In vitro
  microsomal CLint at 0.1 μM: 12 µL/min/mg
